From PubChem BioAssay (NCI)
Where “and” joins values, the source holds several entries; their conditions need not be identical. Equal entries are not always repeated.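 A five-concentration, 48-hour dose response in 96-well plates underlies each endpoint, interpolated linearly between surrounding concentrations. Here, GI50 denotes the concentration required for 50% inhibition of growth. TGI marks complete inhibition of growth.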

Key:
Assay in all cases: NCI anticancer screen, dose series, 48 h
[1] = system: LOX IMVI melanoma
[2] = system: SF-539 CNS
[3] = system: MCF7 breast
[4] = system: EKVX NSCLC
[5] = system: CAKI-1 renal
[6] = system: MDA-MB-231 breast
[7] = system: SN12C renal
[8] = system: M14 melanoma
[9] = system: SK-MEL-5 melanoma
[10] = system: NCI-H522 lung

SMILES	GI50 [1]	TGI [1]	GI50 [2]	TGI [2]	GI50 [3]	TGI [3]	GI50 [4]	TGI [4]	GI50 [5]	TGI [5]	GI50 [6]	TGI [6]	GI50 [7]	TGI [7]	GI50 [8]	TGI [8]	GI50 [9]	TGI [9]	GI50 [10]	TGI [10]
COc1ccc(/C=C/C(=O)c2ccc(Nc3nc(Nc4ccc(F)cc4)nc(Nc4ccc(Cl)cc4)n3)cc2)cc1	> 100 µM	> 100 µM	2.23 µM	19 µM	0.292 µM	31.7 µM	> 100 µM	> 100 µM	69.6 µM	> 100 µM	29.5 µM	> 100 µM	> 100 µM	> 100 µM	> 100 µM	> 100 µM	1.03 µM	27.2 µM	36.7 µM	> 100 µM
O=C1NC(=O)C(c2ccccc2)=C1Nc1ccccc1	> 25 µM	> 25 µM	> 25 µM	> 25 µM	> 25 µM	> 25 µM	> 25 µM	> 25 µM	> 25 µM	> 25 µM	> 25 µM	> 25 µM	> 25 µM	> 25 µM	> 25 µM	> 25 µM	> 25 µM	> 25 µM	> 25 µM	> 25 µM
O=C(/C=C/c1cccc(S(=O)(=O)Nc2ccccc2)c1)NO	0.259 µM and 0.293 µM	1.62 µM and 10.2 µM	0.696 µM and 0.13 µM	20.9 µM and 23.9 µM	0.384 µM and 0.157 µM	> 100 µM and 10.4 µM	1.13 µM and 0.409 µM	> 100 µM	0.401 µM and 0.462 µM	2.48 µM and 1.86 µM	0.577 µM and 0.216 µM	19.9 µM and 5.63 µM	1.68 µM and 0.244 µM		0.451 µM and 0.441 µM	12.9 µM and 12.5 µM		1.03 µM and 0.192 µM	0.191 µM and 0.0603 µM	1.98 µM and 17.2 µM
O=C(c1cccs1)c1nc2cc(Cl)ccc2[n+]([O-])c1C(F)(F)F	> 100 µM	> 100 µM	> 100 µM	> 100 µM	52.2 µM	> 100 µM	51.8 µM	> 100 µM	> 100 µM	> 100 µM	> 100 µM	> 100 µM	> 100 µM	> 100 µM	> 100 µM	> 100 µM	45.4 µM	> 100 µM	29.6 µM	> 100 µM
CCN1C(=O)N(CC)C2C1NC(=S)N2/N=C/C=C/c1ccccc1OC (stereo not drawn)	0.0342 µM	> 100 µM	0.0228 µM	0.0771 µM	0.0406 µM	> 100 µM	0.0532 µM	> 100 µM	0.0514 µM	> 100 µM	0.0413 µM		0.0494 µM	> 100 µM	< 0.0184 µM	> 100 µM	0.0305 µM	0.158 µM	0.0253 µM	
COc1ncc(-c2ccc3nccc(C#CCN4CCN(S(C)(=O)=O)CC4)c3c2)cc1NS(=O)(=O)c1ccc(F)cc1F	0.0956 µM	1.41 µM	0.0398 µM	0.272 µM	< 0.01 µM	1.79 µM	0.146 µM	12.4 µM	0.173 µM	13.4 µM	0.367 µM	17.2 µM	0.124 µM	11.7 µM	0.0855 µM	2.38 µM	0.192 µM	0.723 µM	0.154 µM	1.77 µM
CN(CSc1ccc(Cl)cc1)c1ccc(CSc2ccc(Cl)cc2)cc1	1.63 µM	6.32 µM	2.35 µM	6.48 µM	3.17 µM	18.5 µM	3.16 µM	16 µM	2.32 µM	8.64 µM	1.8 µM	5.9 µM	1.82 µM	15.9 µM	4.09 µM	14.9 µM	6.85 µM	19.8 µM	1.19 µM	6.88 µM
NCCCNc1nc2ccc(Cl)cc2c2c(=O)c3cc(F)ccc3sc12	1.57 µM	2.95 µM	3.79 µM	14.3 µM	1.68 µM	3.42 µM	6 µM	21.2 µM	6.39 µM	20.2 µM	1.78 µM	4.09 µM	2.27 µM	6.08 µM	3.6 µM	14.2 µM	13.6 µM	30.2 µM	2.26 µM	5.67 µM
C=C(CN1CCN(c2ccccc2C(F)(F)F)CC1)c1ccc(C(=O)Nc2ccccc2N)cc1	5.86 µM	42.2 µM	3.27 µM	41.7 µM	4.48 µM	37.1 µM	6.7 µM	> 100 µM	7.97 µM	> 51.4 µM	4.68 µM	> 56.1 µM	6.43 µM	23.9 µM	4.47 µM	> 100 µM	3 µM	9.83 µM	1.91 µM	> 28.1 µM
O=C1c2cccnc2C(=O)c2c1c(C(=O)OCCc1ccccn1)c1ccccn21	0.0206 µM	1.12 µM	0.0334 µM	0.432 µM	< 0.01 µM	0.147 µM	0.305 µM	3.81 µM	0.039 µM	11.3 µM	1.48 µM	> 100 µM	0.0261 µM	1.59 µM	0.0262 µM	0.33 µM	0.0332 µM	0.299 µM	0.12 µM	0.714 µM
COc1ccc(C2CC(c3ccc4ccccc4c3)=NN2c2nc(O)c(C3=c4cc(OC)ccc4=NC3=O)s2)cc1 (stereo not drawn)	0.0359 µM	0.127 µM	0.741 µM	4.34 µM	0.0315 µM	0.75 µM	0.0898 µM	0.355 µM	0.349 µM		0.0408 µM	0.201 µM	0.166 µM	0.464 µM	0.072 µM	0.726 µM	0.0899 µM	0.243 µM	0.0519 µM	0.154 µM
O=C(Nc1ccc(I)cc1)c1cccc([N+](=O)[O-])c1O	3.28 µM	> 100 µM	4.85 µM	> 100 µM	2.76 µM	> 100 µM	2.59 µM	> 100 µM	2.91 µM	> 100 µM	6.03 µM	> 100 µM	3.54 µM	> 100 µM	3.54 µM	49.5 µM			2.61 µM	31.1 µM
